Data reported in paper PMC6002448, “Evaluation of the effect of the new methoxy-stilbenes on expression of receptors and enzymes involved in estrogen synthesis in cancer breast cells” (Molecular and Cellular Biochemistry, 2017).

Biological target: T1, CYP19 (aromatase) (Homo sapiens, UniProt P11511)
T1 construct: gene CYP19A1; human recombinant CYP19
T1 sequence (P11511 1-503): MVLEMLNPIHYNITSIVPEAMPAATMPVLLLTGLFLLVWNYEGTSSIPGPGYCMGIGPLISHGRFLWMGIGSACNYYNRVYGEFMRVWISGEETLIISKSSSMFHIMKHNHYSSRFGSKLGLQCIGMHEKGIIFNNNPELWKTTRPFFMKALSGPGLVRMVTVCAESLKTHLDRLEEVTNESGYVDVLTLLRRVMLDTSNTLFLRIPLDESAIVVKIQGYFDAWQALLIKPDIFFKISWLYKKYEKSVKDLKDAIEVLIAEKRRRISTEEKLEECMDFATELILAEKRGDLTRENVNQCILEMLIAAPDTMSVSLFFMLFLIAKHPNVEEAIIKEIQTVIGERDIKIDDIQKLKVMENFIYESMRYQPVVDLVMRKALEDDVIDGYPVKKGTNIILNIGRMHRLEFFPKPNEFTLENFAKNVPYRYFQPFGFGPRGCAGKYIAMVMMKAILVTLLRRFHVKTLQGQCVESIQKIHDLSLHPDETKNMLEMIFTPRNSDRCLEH
Assay: fluorometric CYP19/MFC inhibitor screening kit (recombinant enzyme)
Assay type: biochemical

An IC50 of about 85 µM was found for COc1ccccc1/C=C/c1ccc(OC)c(OC)c1 [3MS, 3,4,2′-trimethoxy-trans-stilbene] in this work.
